Measurements published in patent publication US20240090503A1, “FUNGICIDAL OXADIAZOLES AND THEIR MIXTURES” (FMC CORPORATION, priority 2020, published 2024).
Read-outs that look alike come from different tables or passages of the source.

Experiments:
[1] = tested on: Phakopsora pachyrhizi (the causal agent of Asian soybean rust); test: Test A: preventive spray on soybean seedlings, Asian soybean rust, visual disease rating; type: in vivo; conditions: Phakopsora pachyrhizi, 216 h, soybean seedlings, 100 = 100% disease control, 0 = no control; for pest or weed control at 10 ppm: 10 ppm test suspension; for pest or weed control at 10 µg/mL: test suspension 10 ppm, read-out: Test A disease control rating
How it was run: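 Compound in acetone/water (50/50) with 250 ppm PEG400 sprayed to run-off on soybean seedlings; inoculated next day with Phakopsora pachyrhizi spores. Held 24 h at 22° C in saturated atmosphere, then 8 days in a 22° C growth chamber before visual rating as % disease control relative to controls.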

[2] = tested on: Puccinia recondita f. sp. tritici (the causal agent of wheat leaf rust); test: Test C: preventive spray on wheat seedlings, wheat leaf rust, visual disease rating; type: in vivo; conditions: Puccinia recondita, 168 h, wheat seedlings; for pest or weed control at 10 ppm: 10 ppm test suspension, 100 = 100% disease control, 0 = no control; for pest or weed control at 10 µg/mL: test suspension 10 ppm, read-out: Test C disease control rating
How it was run: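 Wheat seedlings sprayed to run-off with compound in acetone/water (50/50) with 250 ppm PEG400, then inoculated with spores the following day. After 24 h saturated humidity at 20° C. and 6 days in growth chamber at 20° C., disease rated visually as % control relative to untreated controls.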

[3] = tested on: Phakopsora pachyrhizi (the causal agent of Asian soybean rust); test: Test E: compounds alone and mixtures sprayed on soybean seedlings, Asian soybean rust, observed and Colby-expected disease control; type: in vivo; conditions: for pest or weed control at 161.74 ppm: 161.740 ppm
Text: The general protocol for preparing test compositions for TEST E was as follows: Compound 316, Compound 376, Compound 225, Compound 229, Compound 257, Compound 394, Compound 506, Compound 507, Compound 508, Compound 509, Compound 511, Compound 512, methyl N-[[5-[1-[2,6-difluoro-4-(1-methylethyl)phenyl]-1H-pyrazol-3-yl]-2-methylphenyl]methyl]carbamate (b54.11a), methyl N-[[5-[l-(4-cyclopropyl-2,6-difluorophenyl)-1H-pyrazol-3-yl]-2-methylphenyl]methyl]carbamate (b54.11d), ethyl 1-[[4-[[(1Z)-2-ethoxy-3,3,3-trifluoro-1-propen-1-yl]oxy]phenyl]methyl]-1H-pyrazole-4-carboxylate (b54.12a), ethyl 1-[[4-[[2-(trifluoromethyl)-1,3-dioxolan-2-yl]methoxy]phenyl]methyl]-1H-pyrazole-4-carboxylate (b54.13a), azoxystrobin, benzovindiflupyr, bixafen, chlorothalonil, cyproconazole, epoxiconazole, fenpropidin, fenpropimorph, fluindapyr, flutriafol, fluxapyroxad, inpyrfluxam, metominostrobin, picoxystrobin, prothioconazole, pydiflumetofen, pyraclostrobin, tebuconazole and trifloxystrobin were obtained as unformulated, technical-grade materials. Copper hydroxide and mancozeb was obtained as a formulated product marketed under the trademarks KOCIDE 3000 and MANZATE, respectively. Unformulated materials were first dissolved in acetone and then suspended at the desired concentration (in ppm) in acetone and purified water (50/50 mixture by volume) containing 250 ppm of the surfactant Trem® 014 (polyhydric alcohol esters). Formulated materials were dispersed in sufficient water to give the desired concentration, and neither organic solvent nor surfactant was added to the suspension. The resulting test mixtures were then used in TEST E. The tests were run on four individual plants and the results reported as the mean average of the four plants.
The presence of a synergistic effect between two active ingredients can be established with the aid of the Colby equation (see Colby, S. R. “Calculating Synergistic and Antagonistic Responses of Herbicide Combinations”, Weeds, (1967), 15, 20-22):
Using the method of Colby, the presence of a synergistic interaction between two active ingredients is established by first calculating the predicted activity, p, of the mixture based on activities of the two components applied alone. If p is lower than the experimentally established effect, synergism has occurred. In the equation above, A is the fungicidal activity in percentage control of one component applied alone at rate x. The B term is the fungicidal activity in percentage control of the second component applied at rate y. The equation estimates p, the expected fungicidal activity of the mixture of A at rate x with B at rate y if their effects are strictly additive and no interaction has occurred.
The test mixture was sprayed to the point of run-off on soybean seedlings. The following day the seedlings were inoculated with a spore suspension of Phakopsora pachyrhizi (the causal agent of Asian soybean rust) and incubated in a saturated atmosphere at 22° C. for 24 h and then moved to a growth chamber at 22° C. for 8 days, after which time visual disease ratings were made.
Results for Test E are given below in Tables A-1 through K-2. Each table corresponds to a set of evaluations performed together at the same time. In each table, a rating of 100 indicates 100% disease control and a rating of 0 indicates no disease control (relative to the controls). Columns labeled “Obsd” indicate the average of results observed from test run on four individual plants. Columns labeled “Exp” indicate the expected value for each treatment mixture using the Colby equation, as described above.

[4] = tested on: Zymoseptoria tritici (the causal agent of wheat leaf blotch); test: Test B: preventive spray on wheat seedlings, wheat leaf blotch, visual disease rating; type: in vivo; conditions: Zymoseptoria tritici, 456 h; test suspension 250 ppm; wheat seedlings
How it was run: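 This is a preventive test: spray application preceded Zymoseptoria tritici spore inoculation by one day. Test suspensions were in acetone/water with 250 ppm PEG400 surfactant, at the listed ppm rate. After 48 h saturated humidity at 24° C and 17 days at 20° C, visual ratings scored control from 0 to 100%.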

[5] = Phakopsora pachyrhizi, Compound 508 alone, read-out: Test E Obsd
[6] = Phakopsora pachyrhizi, applied alone, read-out: Test E Obsd
[7] = Phakopsora pachyrhizi, fenpropidin alone, read-out: Test E Obsd

In the case of `CCNC(=O)c1cnn(COCc2ccc(-c3noc(C(F)(F)F)n3)cc2)c1` [Compound 508, N-ethyl-1-[[[4-[5-(trifluoromethyl)-1,2,4-oxadiazol-3-yl]phenyl]methoxy]methyl]-1H-pyrazole-4-carboxamide], the pest or weed control at 10 ppm [1] is reported as 100%, the pest or weed control at 10 ppm [2] is reported as 100% and the pest or weed control at 0.855 ppm [3, 5] is reported as 0%. The pest or weed control at 1.716 ppm [3, 5] was 52%, the pest or weed control at 0.855 ppm [3, 6] was 23% and the pest or weed control at 1.716 ppm [3, 6] was 60%.

For `COCCNC(=O)c1coc(Cc2ccc(-c3noc(C(F)(F)F)n3)cc2)n1` [Compound 257, N-(2-methoxyethyl)-2-[[4-[5-(trifluoromethyl)-1,2,4-oxadiazol-3-yl]phenyl]methyl]-4-oxazolecarboxamide], the pest or weed control at 250 µg/mL [4] was 99%, the pest or weed control at 10 µg/mL [1] was 100% and the pest or weed control at 10 µg/mL [2] was 100%. For the same compound, the pest or weed control at 0.914 ppm ([3]; Phakopsora pachyrhizi, applied alone, 0.914 ppm, read-out: Test E Obsd) was 27%.

Compound `N#CCCNC(=O)c1coc(Cc2ccc(-c3noc(C(F)(F)F)n3)cc2)n1` [Compound 229, N-(2-cyanoethyl)-2-[[4-[5-(trifluoromethyl)-1,2,4-oxadiazol-3-yl]phenyl]methyl]-4-oxazolecarboxamide] has a pest or weed control at 250 µg/mL [4] of 94%, a pest or weed control at 10 µg/mL [1] of 100% and a pest or weed control at 10 µg/mL [2] of 100%. It also gave a pest or weed control at 0.964 ppm ([3]; Phakopsora pachyrhizi, applied alone, 0.964 ppm, read-out: Test E Obsd) of 59% and a pest or weed control at 1.915 ppm ([3]; Phakopsora pachyrhizi, applied alone, 1.915 ppm, read-out: Test E Obsd) of 77%.

`O=C(NCC(F)F)c1coc(Cc2ccc(-c3noc(C(F)(F)F)n3)cc2)n1` [Compound 225, N-(2,2-difluoroethyl)-2-[[4-[5-(trifluoromethyl)-1,2,4-oxadiazol-3-yl]phenyl]methyl]-4-oxazolecarboxamide] gave a pest or weed control at 250 µg/mL [4] of 99%, a pest or weed control at 10 µg/mL [1] of 100% and a pest or weed control at 10 µg/mL [2] of 100%. The pest or weed control at 0.589 ppm ([3]; Phakopsora pachyrhizi, applied alone, 0.589 ppm, read-out: Test E Obsd) was 68%.

Compound `N#CCc1cc(Cc2ccc(-c3noc(C(F)(F)F)n3)cc2)on1` [Compound 510, 5-[[4-[5-(trifluoromethyl)-1,2,4-oxadiazol-3-yl]phenyl]methyl]-3-isoxazoleacetonitrile] has a melting point of 101 to 104 °C, a pest or weed control at 10 ppm [1] of 100% and a pest or weed control at 10 ppm [2] of 84%.

`CCOC(=O)c1cnn(COc2ccc(-c3noc(C(F)(F)F)n3)cc2)c1` [Compound 376, ethyl 1-[[4-[5-(trifluoromethyl)-1,2,4-oxadiazol-3-yl]phenoxy]methyl]-1H-pyrazole-4-carboxylate] showed a pest or weed control at 250 µg/mL [4] of 49%, a pest or weed control at 10 µg/mL [1] of 100% and a pest or weed control at 10 µg/mL [2] of 68%. For the same compound, the pest or weed control at 0.753 ppm ([3]; Phakopsora pachyrhizi, Compound 376 alone, 0.753 ppm, read-out: Test E Obsd) was 53%, the pest or weed control at 1.228 ppm ([3]; Phakopsora pachyrhizi, Compound 376 alone, 1.228 ppm, read-out: Test E Obsd) was 78% and the pest or weed control at 0.753 ppm ([3]; Phakopsora pachyrhizi, Table A-2, Compound 376 0.753 ppm alone, read-out: Test E Obsd (disease control rating)) was 70%. For the same compound, the pest or weed control at 1.228 ppm ([3]; Phakopsora pachyrhizi, Table A-2, Compound 376 1.228 ppm alone, read-out: Test E Obsd (disease control rating)) was 66%, the pest or weed control at 0.753 ppm ([3]; Phakopsora pachyrhizi, Table B-2, Compound 376 0.753 ppm alone, read-out: Test E Obsd (disease control rating)) was 15% and the pest or weed control at 1.228 ppm ([3]; Phakopsora pachyrhizi, Table B-2, Compound 376 1.228 ppm alone, read-out: Test E Obsd (disease control rating)) was 21%. It also gave a pest or weed control at 0.753 ppm ([3]; Phakopsora pachyrhizi, Table C-2, Compound 376 0.753 ppm alone, read-out: Test E Obsd (disease control rating)) of 54%, a pest or weed control at 1.228 ppm ([3]; Phakopsora pachyrhizi, Table C-2, Compound 376 1.228 ppm alone, read-out: Test E Obsd (disease control rating)) of 71% and a pest or weed control at 0.753 ppm ([3]; Phakopsora pachyrhizi, Table D-2, Compound 376 0.753 ppm alone, read-out: Test E Obsd (disease control rating)) of 67%. For the same compound, the pest or weed control at 1.228 ppm ([3]; Phakopsora pachyrhizi, Table D-2, Compound 376 1.228 ppm alone, read-out: Test E Obsd (disease control rating)) was 68%, the pest or weed control at 0.753 ppm ([3]; Phakopsora pachyrhizi, Table E-2, Compound 376 0.753 ppm alone, read-out: Test E Obsd (disease control rating)) was 81% and the pest or weed control at 1.228 ppm ([3]; Phakopsora pachyrhizi, Table E-2, Compound 376 1.228 ppm alone, read-out: Test E Obsd (disease control rating)) was 67%. For the same compound, the pest or weed control at 0.753 ppm ([3]; Phakopsora pachyrhizi, Table F-2, Compound 376 0.753 ppm alone, read-out: Test E Obsd (disease control rating)) was 68%, the pest or weed control at 1.228 ppm ([3]; Phakopsora pachyrhizi, Table F-2, Compound 376 1.228 ppm alone, read-out: Test E Obsd (disease control rating)) was 77% and the pest or weed control at 0.753 ppm ([3]; Phakopsora pachyrhizi, Table G-2, Compound 376 0.753 ppm alone, read-out: Test E Obsd (disease control rating)) was 52%. For the same compound, the pest or weed control at 1.228 ppm ([3]; Phakopsora pachyrhizi, Table G-2, Compound 376 1.228 ppm alone, read-out: Test E Obsd (disease control rating)) was 37%, the pest or weed control at 0.753 ppm ([3]; Phakopsora pachyrhizi, Table H-2, Compound 376 0.753 ppm alone, read-out: Test E Obsd (disease control rating)) was 62% and the pest or weed control at 1.228 ppm ([3]; Phakopsora pachyrhizi, Table H-2, Compound 376 1.228 ppm alone, read-out: Test E Obsd (disease control rating)) was 81%.

With `CC(Cc1ccc(C(C)(C)C)cc1)CN1CCCCC1` (stereo not drawn) [fenpropidin, reference compound] the pest or weed control at 78.393 ppm [3, 6] was 0%, the pest or weed control at 161.74 ppm [3, 6] was 52% and the pest or weed control at 78.393 ppm [3, 7] was 0%. For the same compound, the pest or weed control at 161.74 ppm [3, 7] was 52%.

With `N#Cc1c(Cl)c(Cl)c(Cl)c(C#N)c1Cl` [chlorothalonil, reference compound] the pest or weed control at 138.129 ppm ([3]; Phakopsora pachyrhizi, applied alone, 138.129 ppm, read-out: Test E Obsd) was 76% and the pest or weed control at 222.081 ppm ([3]; Phakopsora pachyrhizi, applied alone, 222.081 ppm, read-out: Test E Obsd) was 88%.

For `Cn1cc(C(=O)Nc2ccccc2-c2cc(F)c(F)c(F)c2)c(C(F)F)n1` [fluxapyroxad, reference compound], the “Test E Obsd (disease control rating)” value ([3]; Table B-1, component (b) alone: bixafen 11.327, fluxapyroxad 2.757, fluindapyr 8.820 ppm) was 19%, the “Test E Obsd (disease control rating)” value ([3]; Table B-1, component (b) alone: bixafen 19.525, fluxapyroxad 4.748, fluindapyr 15.230 ppm) was 52% and the “Test E Obsd (disease control rating)” value ([3]; Table B-2, component (b) alone: bixafen 11.327, fluxapyroxad 2.757, fluindapyr 8.820 ppm) was 19%. The “Test E Obsd (disease control rating)” value ([3]; Table B-2, component (b) alone: bixafen 19.525, fluxapyroxad 4.748, fluindapyr 15.230 ppm) was 52%.

With `CO/C=C(/C(=O)OC)c1ccccc1Oc1cc(Oc2ccccc2C#N)ncn1` [azoxystrobin, reference compound] the “Test E Obsd (disease control rating)” value ([3]; Table D-1, component (b) alone: cyproconazole 37.333, azoxystrobin 95.873, trifloxystrobin 20.511 ppm) was 70%, the “Test E Obsd (disease control rating)” value ([3]; Table D-1, component (b) alone: cyproconazole 64.883, azoxystrobin 169.226, trifloxystrobin 35.310 ppm) was 88% and the “Test E Obsd (disease control rating)” value ([3]; Table D-2, component (b) alone: cyproconazole 37.333, azoxystrobin 95.873, trifloxystrobin 20.511 ppm) was 70%. The “Test E Obsd (disease control rating)” value ([3]; Table D-2, component (b) alone: cyproconazole 64.883, azoxystrobin 169.226, trifloxystrobin 35.310 ppm) was 88%.
